This is an account of results in article PMC4769301, “Affinity Enhancement by Ligand Clustering Effect Inspired by Peptide Dendrimers−Shank PDZ Proteins Interactions” (PLoS ONE, 2016).

Several values for one entry are separate records, joined by “and”; a condition that tells them apart may be missing. Equal entries are not always repeated. Where two headings read alike, the source gives them in different places. Numbered stars: 1 amine (or outer) side, 2 acyl side, 3 side chain; on linkers, the order of the positions; unused ones are H or OH. Bridge positions count the residues as written; N and C are the ends. Ends that are not written are not given here. Peptide text beside a SMILES is read from it. I, II: the chains in the order shown. X1 = O=C1CC([*:1])C(=O)N1CCN(CCN1C(=O)CC([*:2])C1=O)CCN1C(=O)CC([*:3])C1=O; X3 = O=C1CC([*:1])C(=O)N1CCOCCOCCOCCN1C(=O)CC([*:2])C1=O; X2 = O=C1CC([*:1])C(=O)N1CCOCCOCCN1C(=O)CC([*:2])C1=O

One experiment deals with T1, Shank3 PDZ (Mus musculus, UniProt Q4ACU6).
T1 construct: His tag; made in house; host or cells: E. coli BL21
T1 sequence (Q4ACU6 533-665): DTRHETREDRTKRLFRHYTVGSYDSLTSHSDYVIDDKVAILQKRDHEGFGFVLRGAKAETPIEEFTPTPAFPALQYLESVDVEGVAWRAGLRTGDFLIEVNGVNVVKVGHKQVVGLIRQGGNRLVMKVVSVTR
Kind of experiment: Isothermal titration calorimetry, Shank3 PDZ. It is filed as binding. From the text:
(§1) Gene encoding the Shank1 PDZ (Swiss-Prot accession number Q9WV48.1, residues 653–765) was synthesized by GenScript Inc., and digested by Nde I and Xho I restriction enzymes and ligated into pET28a vector to generate pET28-Shank1 PDZ plasmid (S1A Fig). The plasmid pET.M.3C Shank3 PDZ (Swiss-Prot accession number Q4ACU6.3, residues 533–665) was a gift from Prof. Mingjie Zhang’s group from Division of Life Science, Hong Kong University of Science and Technology. The recombinant plasmid pET28-Shank1 PDZ and pET.M.3C Shank3 PDZ were transformed into E. coli BL21 cells for protein production. Mono-clones were pre-cultured overnight at 37°C, and then cultures were added to new media, shaken at 37 °C until optical density at 600 nm reached 0.6–0.8. Then isopropyl β-D-1-thiogalactopyranoside was added at final concentration 1 mM to induce protein overexpression, the culture was shaken overnight at 16°C.
(§2) Prior to use, lyophilized peptides were dissolved in the storage buffer (50 mM sodium phosphate, 200 mM NaCl, pH 7.4). All the peptides and protein solution were filtered through 0.1 μm membrane, and their concentrations were adjusted according to experiments requirement: except for the binding pair p1 ligand and Shank1 PDZ, the proteins concentration were between 30–40 μM, ligands concentration were between 300–400 μM; and for the binding pair p1 ligand and Shank1 PDZ, the affinity was very low so that protein concentration was adjusted to about 315 μM and p1 ligand concentration was adjusted to about 3.14 mM to get accuracy affinity data. All the solutions were extensively degassed just before titration. Titrations were performed at 25°C by MicroCal VP-ITC (Malvern), and data were analyzed by Origin software (Origin Lab) and fitted to single-binding-site model.
(In ITC the heat of successive injections is recorded.)

In experiment [1] the target is T2, Shank1 PDZ (Rattus norvegicus, UniProt Q9WV48).
T2 construct: His tag; made in house; host or cells: E. coli BL21
T2 sequence (Q9WV48 653-765): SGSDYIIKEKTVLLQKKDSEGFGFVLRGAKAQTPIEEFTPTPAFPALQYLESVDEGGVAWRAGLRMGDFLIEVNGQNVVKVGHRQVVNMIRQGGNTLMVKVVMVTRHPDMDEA
Kind of experiment: Native mass spectrometry, Shank1 PDZ. It is filed as binding. The conditions noted are these: for complexes with higher stoichiometry such as 2:1 or 3:1: native MS, protein/peptide ratio 4:1, protein in excess, within the detection limit of native MS. The procedure: Prior to the experiment, the protein solution was extensively dialyzed at 4°C against 150mM ammonium acetate. During the dialysis, Shank1 PDZ yielded no precipitate, while Shank3 PDZ was largely precipitated out. Increasing the concentration of ammonium acetate to 200–500 mM couldn’t alleviate precipitation. Lyophilized peptides were also dissolved in the 150 mM ammonium acetate. All the peptides and protein solution were filtered through 0.1 μm membrane, and their concentrations were adjusted according to experiments requirement. The protein and peptide were mixed as the corresponding ratio and incubated at room temperature for 20 minutes.
Positive ion electrospray ionization mass spectra were acquired on a Micromass Q-Tof micro mass spectrometer (Waters), with a nanoESI source using EconoTips. The capillary voltage was adjusted in the range of 1.2–2.2 kV until optimal ion signals were obtained. The cone voltage of the Q-TOF was set at 20 V, and the ion source temperature was set at 40°C.

Experiment [2] deals with T2, Shank1 PDZ. Kind of experiment: Surface plasmon resonance, immobilized Shank1 PDZ. It is filed as binding. The conditions noted are these: for kon: pH 7.4, read-out: association rate constant kon; for koff: pH 7.4, read-out: dissociation rate constant koff. The method, then: Prior to use, lyophilized peptides were dissolved in the storage buffer (50 mM sodium phosphate, 200 mM NaCl, pH 7.4) at high concentration and diluted to required concentration using running buffer (HBS-EP: 0.01 M HEPES pH 7.4, 0.15 M NaCl, 3 mM EDTA, 0.005% v/v Surfactant P20). All the peptides and protein solution were filtered through 0.1 μm membrane, and their concentrations were adjusted according to experiments requirement: for ligand p1, concentration series of 10.8 μM, 21.6 μM, 43.2 μM, 86.5μM, 173μM, 346μM were used; for ligand p2, concentrations series of 10 μM, 20 μM, 40 μM, 80 μM, 160 μM, 320 μM were used; for ligand p3, concentrations series of 2.63 μM, 5.27 μM, 10.5 μM, 21.1 μM, 42.1 μM, 84.3 μM were used. All sample solution and running buffer were extensively degassed just before titration. Shank1 PDZ protein was coupled on CM5 chip using EDC/NHS method.
Running were performed at 25°C on Biacore 3000 (GE), and data were processed by BIAevaluation software and fitted to steady state affinity model and 1:1 Langmuir binding model. 1:1 Langmuir binding model which show kinetics data was analyzed by BIAevaluation software. Steady state affinity model which show affinity data was analyzed by Origin software using the following equation: Req=KACRmax/1+KACn

In experiment [3] the target is T2, Shank1 PDZ. Kind of experiment: Isothermal titration calorimetry, Shank1 PDZ. It is filed as binding.
From the text: as §1, §2

In experiment [4] the target is T3, p1 (monomeric βPIX peptide) (Rattus norvegicus).
T3 chain: CGSSGDPAWDETNL
Kind of experiment: ITC.

Experiment [5] addresses T4, p2 (dimeric peptide, BM(PEG)2) (also: dimer via Cys-BM(PEG)2 linker).
T4 chain: Ac-CGSSGDPAWDETNL
Kind of experiment: ITC.

Experiment [6] addresses T5, p3 (trimeric peptide, TMEA) (also: trimer via Cys-TMEA linker).
T5 chain: Ac-CGSSGDPAWDETNL
Kind of experiment: ITC.

Experiment [7] concerns the target T3, p1 (monomeric βPIX peptide). Kind of experiment: native MS.
Experiment [8] concerns the target T4, p2 (dimeric peptide, BM(PEG)2). Kind of experiment: native MS.
Experiment [9] deals with T5, p3 (trimeric peptide, TMEA). Kind of experiment: native MS.
Experiment [10] addresses T4, p2 (dimeric peptide, BM(PEG)2). Kind of experiment: ITC (diluted ligand).
The target in experiment [11] is T5, p3 (trimeric peptide, TMEA). Kind of experiment: ITC (diluted ligand).
In a further experiment the target is T6, dimeric peptide BM(PEG)3 (also: dimer via Cys-BM(PEG)3 linker).
T6 chain: Ac-CGSSGDPAWDETNL
Kind of experiment: ITC.

For experiment [12], the target named is T4, p2 (dimeric peptide, BM(PEG)2). Kind of experiment: SPR kinetics. In general terms: In SPR one partner is held on a chip, and binding of the other changes the refractive index at the surface.
In experiment [13] the target is T5, p3 (trimeric peptide, TMEA). Kind of experiment: SPR kinetics.
For experiment [14], the target named is T3, p1 (monomeric βPIX peptide). Kind of experiment: SPR steady state.
For experiment [15], the target named is T4, p2 (dimeric peptide, BM(PEG)2). Kind of experiment: SPR steady state.
The target of experiment [16] is T5, p3 (trimeric peptide, TMEA). Kind of experiment: SPR steady state.

GSGSGDPAWDETNL-OH [p1]: the Kd on Shank3 PDZ (MicroCal VP-ITC, 25°C, 50 mM sodium phosphate, 200 mM NaCl, pH 7.4, single-binding-site model, [p1] = 406 μM/[Shank3 PDZ] = 40 μM, [p2] = 400 μM/30 μM, [p3] = 315 μM/34 μM, read-out: Kd (ITC)) was 24 ± 2 µM; on Shank1 PDZ [1] (rough estimation from peak intensities, 1:1 mixture, 150 mM ammonium acetate, 65 μM each, gas-phase measurement, read-out: dissociation constant estimated from native MS peak intensity), about 13 µM; at Shank1 PDZ [2] (Biacore 3000, 25°C, HBS-EP pH 7.4, Shank1 PDZ coupled on CM5 chip, steady state affinity model, n = 1, read-out: dissociation constant (SPR, steady state affinity model)), 45 ± 6 µM; on Shank1 PDZ [3] (MicroCal VP-ITC, 25°C, 50 mM sodium phosphate, 200 mM NaCl, pH 7.4, single-binding-site model, [p1] = 4 mM/[Shank1 PDZ] = 400 μM, [p2] = 326 μM/43 μM, [p3] = 354 μM/35 μM (Fig 3A), read-out: dissociation constant Kd (ITC)) it was 41 ± 1 µM.

One may read the kon as a measure of how fast the partners come together. The koff is the rate constant with which the complex falls apart. The molecule “I: Ac-CGSSGDPAWDETNL-OH / II: Ac-CGSSGDPAWDETNL-OH / III: Ac-CGSSGDPAWDETNL-OH (linker I:1-II:1-III:1 via X1) [p3]” showed a Kd at Shank3 PDZ of 1.9 ± 0.1 µM. In addition, on Shank1 PDZ [1], the Kd is about 4.5 µM and the “complexes with higher stoichiometry such as 2:1 or 3:1” value is recorded as “not observed”. For the same molecule, the difference in kon entry at Shank1 PDZ [2] (SPR, 1:1 Langmuir binding model, ligand p3 compared with ligand p2) is “about 1.2 fold”. Further, on Shank1 PDZ [2], the kon amounted to 78900 M⁻¹ s⁻¹ and the koff turned out to be 0.353 s⁻¹. For the same molecule, the Kd on Shank1 PDZ [3] is 8.1 µM and 6.5 µM.

Molecule `CC(=O)N[C@@H](CSC1CC(=O)N(CCOCCOCCN2C(=O)CC(SC[C@H](NC(C)=O)C(=O)NCC(=O)N[C@@H](CO)C(=O)N[C@@H](CO)C(=O)NCC(=O)N[C@@H](CC(=O)O)C(=O)N3CCC[C@H]3C(=O)N[C@@H](C)C(=O)N[C@@H](Cc3c[nH]c4ccccc34)C(=O)N[C@@H](CC(=O)O)C(=O)N[C@@H](CCC(=O)O)C(=O)N[C@H](C(=O)N[C@@H](CC(N)=O)C(=O)N[C@@H](CC(C)C)C(=O)O)[C@@H](C)O)C2=O)C1=O)C(=O)NCC(=O)N[C@@H](CO)C(=O)N[C@@H](CO)C(=O)NCC(=O)N[C@@H](CC(=O)O)C(=O)N1CCC[C@H]1C(=O)N[C@@H](C)C(=O)N[C@@H](Cc1c[nH]c2ccccc12)C(=O)N[C@@H](CC(=O)O)C(=O)N[C@@H](CCC(=O)O)C(=O)N[C@H](C(=O)N[C@@H](CC(N)=O)C(=O)N[C@@H](CC(C)C)C(=O)O)[C@@H](C)O` (some centres unmarked) [p2] (I: Ac-CGSSGDPAWDETNL-OH / II: Ac-CGSSGDPAWDETNL-OH; linker I:1-II:1 via X2) displayed a Kd at Shank3 PDZ of 5.9 ± 0.4 µM. Besides, on Shank1 PDZ [1], the Kd is about 5.3 µM and the “complexes with higher stoichiometry such as 2:1 or 3:1” value is “not observed”. For the same molecule, on Shank1 PDZ [2], the kon came out at 65200 M⁻¹ s⁻¹ and the koff is 1.12 s⁻¹. Besides, on Shank1 PDZ [3], the Kd is 16.6 µM and 18 µM.

In turn, `CC(=O)N[C@@H](CSC1CC(=O)N(CCOCCOCCOCCN2C(=O)CC(SC[C@H](NC(C)=O)C(=O)NCC(=O)N[C@@H](CO)C(=O)N[C@@H](CO)C(=O)NCC(=O)N[C@@H](CC(=O)O)C(=O)N3CCC[C@H]3C(=O)N[C@@H](C)C(=O)N[C@@H](Cc3c[nH]c4ccccc34)C(=O)N[C@@H](CC(=O)O)C(=O)N[C@@H](CCC(=O)O)C(=O)N[C@H](C(=O)N[C@@H](CC(N)=O)C(=O)N[C@@H](CC(C)C)C(=O)O)[C@@H](C)O)C2=O)C1=O)C(=O)NCC(=O)N[C@@H](CO)C(=O)N[C@@H](CO)C(=O)NCC(=O)N[C@@H](CC(=O)O)C(=O)N1CCC[C@H]1C(=O)N[C@@H](C)C(=O)N[C@@H](Cc1c[nH]c2ccccc12)C(=O)N[C@@H](CC(=O)O)C(=O)N[C@@H](CCC(=O)O)C(=O)N[C@H](C(=O)N[C@@H](CC(N)=O)C(=O)N[C@@H](CC(C)C)C(=O)O)[C@@H](C)O` (some centres unmarked) [dimeric peptide BM(PEG)3] (I: Ac-CGSSGDPAWDETNL-OH / II: Ac-CGSSGDPAWDETNL-OH; linker I:1-II:1 via X3) registered a Kd on Shank1 PDZ [3] of 13.7 ± 0.7 µM.

B1: Shank3 PDZ 533-665 (protein)
chain: T1 sequence (Q4ACU6 533-665)
On to B1, for which the results for the Kd in [4], in experiment [5] and in experiment [6] were 24 µM, 5.9 µM and 1.9 µM, respectively.

B2: Shank1 PDZ 653-765 (protein)
chain: T2 sequence (Q9WV48 653-765)
On to B2, for which the Kd in [7] is about 13 µM; in [8] it was about 5.3 µM; in experiment [9], about 4.5 µM; in experiment [10], 18 µM; in [11] it was 6.5 µM; in experiment [4], 41 µM. The Kd came to 16.6 µM in experiment [5]; 13.7 µM in the experiment with dimeric peptide BM(PEG)3; 8.1 µM in experiment [6]; 17.1 µM in [12]; 4.48 µM in experiment [13]; 45 µM in experiment [14]. Besides, the Kd came out at 19 µM in experiment [15] and 6 µM in [16].
